Reference: ChEMBL document CHEMBL4507270 (2021)

Key:
[1] = target: Tyrosine-protein kinase JAK2 (Homo sapiens) (UniProt O60674)
[2] = target: Serine/threonine-protein kinase mTOR (Homo sapiens) (UniProt P42345)
[3] = target: Phosphatidylinositol 4,5-bisphosphate 3-kinase catalytic subunit beta isoform (Homo sapiens) (UniProt P42338)
[4] = target: Serine/threonine-protein kinase D1 (Homo sapiens) (UniProt Q15139)
[5] = target: Cytoplasmic tyrosine-protein kinase BMX (Homo sapiens) (UniProt P51813)
[6] = target: Cyclin-dependent kinase 15 (Homo sapiens) (UniProt Q96Q40)
[7] = target: MAP/microtubule affinity-regulating kinase 3 (Homo sapiens) (UniProt P27448)
[8] = target: Serine/threonine-protein kinase NLK (Homo sapiens) (UniProt Q9UBE8)
[9] = test system: Tyrosine-protein kinase ABL1 (Homo sapiens), P00519 [T315I]
[10] = target: Tyrosine-protein kinase Lck (Homo sapiens) (UniProt P06239)
[11] = target: Tyrosine-protein kinase Yes (Homo sapiens) (UniProt P07947)
[12] = target: Serine/threonine-protein kinase SIK3 (Homo sapiens) (UniProt Q9Y2K2)
[13] = target: Serine/threonine-protein kinase 32A (Homo sapiens) (UniProt Q8WU08)
[14] = target: Serine/threonine-protein kinase WNK1 (Homo sapiens) (UniProt Q9H4A3)
[15] = target: Serine/threonine-protein kinase Nek11 (Homo sapiens) (UniProt Q8NG66)
[16] = target: Serine/threonine-protein kinase Chk1 (Homo sapiens) (UniProt O14757)
[17] = target: Alpha-2C adrenergic receptor (Homo sapiens) (UniProt P18825); conditions: Compound concentration 10.0 uM
[18] = target: BMP-2-inducible protein kinase (Homo sapiens) (UniProt Q9NSY1)
[19] = target: GABA-A receptor; anion channel (Rattus norvegicus) (UniProt O09028+P15431+P18506+P18508+P19969+P20236+P23574+P23576+P28471+P28473+P30191+P62813+P63079+P63138+Q91ZM7+Q9ES14); conditions: Compound concentration 10.0 uM
[20] = target: Cyclin-dependent kinase 5 (Homo sapiens) (UniProt Q00535)
[21] = target: RAC-alpha serine/threonine-protein kinase (Homo sapiens) (UniProt P31749)
[22] = target: Cyclin-dependent kinase 4 (Homo sapiens) (UniProt P11802)
[23] = target: Tyrosine-protein kinase FRK (Homo sapiens) (UniProt P42685)
[24] = target: Serine/threonine-protein kinase 16 (Homo sapiens) (UniProt O75716)
[25] = target: Aurora kinase A (Homo sapiens) (UniProt O14965)
[26] = target: Uncharacterized serine/threonine-protein kinase SBK3 (Homo sapiens) (UniProt P0C264)
[27] = target: Serine/threonine-protein kinase SIK1 (Homo sapiens) (UniProt P57059)
[28] = target: Muscarinic acetylcholine receptor M5 (Homo sapiens) (UniProt P08912); conditions: Compound concentration 10.0 uM
[29] = target: STE20/SPS1-related proline-alanine-rich protein kinase (Homo sapiens) (UniProt Q9UEW8)
[30] = target: Homeodomain-interacting protein kinase 3 (Homo sapiens) (UniProt Q9H422)
[31] = target: Serine/threonine-protein kinase Nek10 (Homo sapiens) (UniProt Q6ZWH5)
[32] = target: Hormonally up-regulated neu tumor-associated kinase (Homo sapiens) (UniProt P57058)
[33] = target: Protein kinase C epsilon type (Homo sapiens) (UniProt Q02156)
[34] = target: Ephrin type-B receptor 1 (Homo sapiens) (UniProt P54762)
[35] = target: Dual specificity mitogen-activated protein kinase kinase 6 (Homo sapiens) (UniProt P52564)
[36] = target: Insulin-like growth factor 1 receptor (Homo sapiens) (UniProt P08069)
[37] = test system: Phosphatidylinositol 4,5-bisphosphate 3-kinase catalytic subunit alpha isoform (Homo sapiens), P42336 [E542K]
[38] = test system: Tyrosine-protein kinase ABL1 (Homo sapiens), P00519 [E255K]
[39] = target: Cyclin-dependent kinase 19 (Homo sapiens) (UniProt Q9BWU1)
[40] = test system: Phosphatidylinositol 4,5-bisphosphate 3-kinase catalytic subunit alpha isoform (Homo sapiens), P42336 [Q546K]
[41] = test system: ALK tyrosine kinase receptor (Homo sapiens), Q9UM73 [L1196M]
[42] = target: Vascular endothelial growth factor receptor 2 (Homo sapiens, UniProt P35968)
[43] = target: Serine/threonine-protein kinase TAO1 (Homo sapiens) (UniProt Q7L7X3)
[44] = test system: Mast/stem cell growth factor receptor Kit (Homo sapiens), P10721 [D816V]
[45] = Compound concentration 100.0 nM
[46] = Compound concentration 1000.0 nM

Dual specificity mitogen-activated protein kinase kinase 6 (Homo sapiens), sequence (P52564 whole entry): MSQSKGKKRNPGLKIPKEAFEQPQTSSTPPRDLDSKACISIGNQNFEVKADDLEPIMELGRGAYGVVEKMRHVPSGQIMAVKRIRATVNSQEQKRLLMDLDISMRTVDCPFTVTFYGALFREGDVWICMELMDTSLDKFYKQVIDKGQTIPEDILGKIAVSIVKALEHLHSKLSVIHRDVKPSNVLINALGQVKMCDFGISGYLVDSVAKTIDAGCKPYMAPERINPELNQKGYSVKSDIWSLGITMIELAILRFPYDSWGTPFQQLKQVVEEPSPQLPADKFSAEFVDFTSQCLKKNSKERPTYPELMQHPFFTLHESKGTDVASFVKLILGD
Tyrosine-protein kinase Yes (Homo sapiens), sequence (P07947 2-543 limits assumed): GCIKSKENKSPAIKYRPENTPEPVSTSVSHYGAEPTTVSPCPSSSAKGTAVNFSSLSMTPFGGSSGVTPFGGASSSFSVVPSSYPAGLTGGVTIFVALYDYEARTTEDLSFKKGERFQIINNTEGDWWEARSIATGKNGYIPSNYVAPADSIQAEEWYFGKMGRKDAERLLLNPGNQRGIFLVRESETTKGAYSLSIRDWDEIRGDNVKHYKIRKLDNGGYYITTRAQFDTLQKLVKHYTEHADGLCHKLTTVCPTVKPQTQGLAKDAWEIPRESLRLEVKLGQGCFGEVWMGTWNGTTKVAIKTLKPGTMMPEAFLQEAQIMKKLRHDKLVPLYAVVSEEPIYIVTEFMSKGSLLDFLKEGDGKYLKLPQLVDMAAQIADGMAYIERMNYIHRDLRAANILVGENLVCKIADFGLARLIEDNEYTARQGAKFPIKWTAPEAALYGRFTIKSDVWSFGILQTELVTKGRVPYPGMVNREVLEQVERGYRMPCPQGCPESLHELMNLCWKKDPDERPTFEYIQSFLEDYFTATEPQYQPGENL
Tyrosine-protein kinase FRK (Homo sapiens), sequence (P42685 whole entry): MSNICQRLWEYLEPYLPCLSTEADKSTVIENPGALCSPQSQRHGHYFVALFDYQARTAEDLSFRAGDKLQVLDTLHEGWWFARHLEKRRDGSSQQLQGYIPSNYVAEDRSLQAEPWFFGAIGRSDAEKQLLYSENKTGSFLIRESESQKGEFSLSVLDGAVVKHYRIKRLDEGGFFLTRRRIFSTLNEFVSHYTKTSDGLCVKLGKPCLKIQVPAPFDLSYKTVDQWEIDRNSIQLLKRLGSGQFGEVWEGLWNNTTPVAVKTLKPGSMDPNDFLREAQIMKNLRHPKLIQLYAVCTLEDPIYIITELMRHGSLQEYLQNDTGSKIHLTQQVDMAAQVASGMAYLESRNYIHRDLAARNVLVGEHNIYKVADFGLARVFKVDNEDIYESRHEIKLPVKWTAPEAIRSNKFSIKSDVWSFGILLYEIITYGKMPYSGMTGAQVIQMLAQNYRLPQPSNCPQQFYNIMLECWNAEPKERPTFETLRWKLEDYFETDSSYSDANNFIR
Cytoplasmic tyrosine-protein kinase BMX (Homo sapiens), sequence (P51813 whole entry): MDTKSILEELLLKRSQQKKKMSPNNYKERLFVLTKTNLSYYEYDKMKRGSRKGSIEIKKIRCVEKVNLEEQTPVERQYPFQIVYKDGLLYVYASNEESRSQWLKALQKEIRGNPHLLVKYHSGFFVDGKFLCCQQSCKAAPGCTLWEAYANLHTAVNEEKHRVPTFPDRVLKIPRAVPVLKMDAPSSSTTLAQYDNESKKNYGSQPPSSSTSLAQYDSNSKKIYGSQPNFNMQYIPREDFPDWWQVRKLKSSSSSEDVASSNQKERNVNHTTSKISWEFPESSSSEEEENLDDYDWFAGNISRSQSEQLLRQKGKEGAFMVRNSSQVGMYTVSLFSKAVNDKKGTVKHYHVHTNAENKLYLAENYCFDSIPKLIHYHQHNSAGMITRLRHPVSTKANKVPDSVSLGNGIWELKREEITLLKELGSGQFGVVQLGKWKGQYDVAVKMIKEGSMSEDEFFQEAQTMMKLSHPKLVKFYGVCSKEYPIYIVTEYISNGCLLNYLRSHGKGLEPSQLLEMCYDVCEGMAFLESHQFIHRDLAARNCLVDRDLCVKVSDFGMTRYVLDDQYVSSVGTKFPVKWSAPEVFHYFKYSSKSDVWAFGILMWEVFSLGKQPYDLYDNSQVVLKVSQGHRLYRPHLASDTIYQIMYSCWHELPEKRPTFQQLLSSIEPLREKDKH
Vascular endothelial growth factor receptor 2, sequence (P35968 whole entry): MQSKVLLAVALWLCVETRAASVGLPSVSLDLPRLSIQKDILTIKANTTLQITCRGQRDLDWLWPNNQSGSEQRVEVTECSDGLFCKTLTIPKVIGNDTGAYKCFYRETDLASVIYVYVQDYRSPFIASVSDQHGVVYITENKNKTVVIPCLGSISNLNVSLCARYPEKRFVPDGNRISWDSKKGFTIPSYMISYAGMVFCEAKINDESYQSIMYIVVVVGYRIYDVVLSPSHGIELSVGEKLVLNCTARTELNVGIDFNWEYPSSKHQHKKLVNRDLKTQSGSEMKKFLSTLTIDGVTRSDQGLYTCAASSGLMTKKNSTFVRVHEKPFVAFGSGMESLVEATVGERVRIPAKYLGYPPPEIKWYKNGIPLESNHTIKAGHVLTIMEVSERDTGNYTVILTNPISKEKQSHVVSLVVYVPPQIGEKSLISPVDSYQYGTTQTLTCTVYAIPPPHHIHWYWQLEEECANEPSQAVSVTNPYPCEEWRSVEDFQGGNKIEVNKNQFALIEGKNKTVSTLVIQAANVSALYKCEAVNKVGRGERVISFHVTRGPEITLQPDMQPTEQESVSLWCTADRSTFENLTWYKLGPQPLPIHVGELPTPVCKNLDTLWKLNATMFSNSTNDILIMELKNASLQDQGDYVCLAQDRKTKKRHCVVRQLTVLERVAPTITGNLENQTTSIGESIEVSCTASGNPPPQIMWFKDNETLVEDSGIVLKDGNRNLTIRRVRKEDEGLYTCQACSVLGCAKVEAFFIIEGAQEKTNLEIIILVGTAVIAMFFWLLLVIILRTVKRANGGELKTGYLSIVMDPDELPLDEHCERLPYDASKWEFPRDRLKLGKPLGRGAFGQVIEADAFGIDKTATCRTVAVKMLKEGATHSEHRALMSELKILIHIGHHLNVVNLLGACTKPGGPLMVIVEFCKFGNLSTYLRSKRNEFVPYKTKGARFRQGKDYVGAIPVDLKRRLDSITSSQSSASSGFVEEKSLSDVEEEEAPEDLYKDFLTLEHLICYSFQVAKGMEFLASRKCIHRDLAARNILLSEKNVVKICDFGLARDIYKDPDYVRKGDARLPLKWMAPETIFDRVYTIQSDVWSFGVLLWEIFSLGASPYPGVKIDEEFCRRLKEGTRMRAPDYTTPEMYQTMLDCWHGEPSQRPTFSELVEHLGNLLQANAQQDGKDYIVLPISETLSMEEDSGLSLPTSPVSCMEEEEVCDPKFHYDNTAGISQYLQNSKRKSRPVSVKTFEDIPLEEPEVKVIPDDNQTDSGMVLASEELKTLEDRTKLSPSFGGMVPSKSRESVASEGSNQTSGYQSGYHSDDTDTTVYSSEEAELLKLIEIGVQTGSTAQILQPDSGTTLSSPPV
Tyrosine-protein kinase Lck (Homo sapiens), sequence (P06239 2-509 limits assumed): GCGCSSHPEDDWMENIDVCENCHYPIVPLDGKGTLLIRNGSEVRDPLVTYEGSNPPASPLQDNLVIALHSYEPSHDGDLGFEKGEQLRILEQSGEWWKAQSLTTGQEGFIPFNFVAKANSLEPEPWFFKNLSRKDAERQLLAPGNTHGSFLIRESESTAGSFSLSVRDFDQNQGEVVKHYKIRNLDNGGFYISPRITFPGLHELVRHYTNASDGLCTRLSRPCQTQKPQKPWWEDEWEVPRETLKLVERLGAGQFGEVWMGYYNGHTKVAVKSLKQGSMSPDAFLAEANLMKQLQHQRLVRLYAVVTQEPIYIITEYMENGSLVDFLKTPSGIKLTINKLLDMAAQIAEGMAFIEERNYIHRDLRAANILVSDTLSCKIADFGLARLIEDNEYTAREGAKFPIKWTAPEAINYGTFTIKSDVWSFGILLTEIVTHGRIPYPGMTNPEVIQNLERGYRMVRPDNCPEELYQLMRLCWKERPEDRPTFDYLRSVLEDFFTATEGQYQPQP
Cyclin-dependent kinase 15 (Homo sapiens), sequence (Q96Q40 whole entry): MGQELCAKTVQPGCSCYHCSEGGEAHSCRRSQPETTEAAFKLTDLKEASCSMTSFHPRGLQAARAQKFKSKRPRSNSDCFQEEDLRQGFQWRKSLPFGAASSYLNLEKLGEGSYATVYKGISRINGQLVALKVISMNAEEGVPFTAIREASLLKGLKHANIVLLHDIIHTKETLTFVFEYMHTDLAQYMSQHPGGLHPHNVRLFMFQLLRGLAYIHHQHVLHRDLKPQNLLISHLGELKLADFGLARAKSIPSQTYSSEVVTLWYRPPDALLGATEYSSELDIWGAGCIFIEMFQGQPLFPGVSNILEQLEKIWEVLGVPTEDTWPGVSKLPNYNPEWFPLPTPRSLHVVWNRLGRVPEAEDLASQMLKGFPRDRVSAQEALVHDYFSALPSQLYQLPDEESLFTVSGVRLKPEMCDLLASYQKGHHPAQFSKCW
Uncharacterized serine/threonine-protein kinase SBK3 (Homo sapiens), sequence (P0C264 whole entry): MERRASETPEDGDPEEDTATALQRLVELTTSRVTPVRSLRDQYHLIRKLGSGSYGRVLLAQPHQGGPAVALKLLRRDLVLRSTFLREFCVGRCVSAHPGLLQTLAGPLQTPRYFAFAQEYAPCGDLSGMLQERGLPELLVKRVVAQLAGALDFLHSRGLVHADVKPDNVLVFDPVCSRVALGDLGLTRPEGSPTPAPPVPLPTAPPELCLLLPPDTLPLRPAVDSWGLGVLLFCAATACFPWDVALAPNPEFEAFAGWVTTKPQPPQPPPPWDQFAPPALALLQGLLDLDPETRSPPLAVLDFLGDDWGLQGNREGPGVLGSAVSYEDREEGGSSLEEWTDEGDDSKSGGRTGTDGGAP
Serine/threonine-protein kinase 16 (Homo sapiens), sequence (O75716 whole entry): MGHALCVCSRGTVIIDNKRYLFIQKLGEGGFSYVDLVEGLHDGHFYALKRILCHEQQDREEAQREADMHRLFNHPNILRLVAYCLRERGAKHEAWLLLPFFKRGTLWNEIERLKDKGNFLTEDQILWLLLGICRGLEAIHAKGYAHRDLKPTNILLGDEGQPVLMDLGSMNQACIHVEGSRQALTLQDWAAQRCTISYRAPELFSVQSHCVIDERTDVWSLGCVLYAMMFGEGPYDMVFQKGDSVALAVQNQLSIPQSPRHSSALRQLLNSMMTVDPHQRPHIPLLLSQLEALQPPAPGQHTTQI

SMILES: Cc1cc(C)c(-n2ccn3nc(-c4cccnc4)cc23)cc1NC(=O)c1cc(C#N)cc(S(F)(F)(F)(F)F)c1 [BAY-826]
- residual activity [1, 45]: 81.8%
- residual activity [2, 45]: 70.1%
- residual activity [3, 45]: 89.1%
- residual activity [4, 45]: 81.2%
- residual activity [5, 45]: 76.7%
- residual activity [6, 45]: 76%
- residual activity [7, 45]: 85.1%
- residual activity [8, 45]: 100%
- residual activity [9, 45]: 83.8%
- residual activity [10, 45]: 41.6%
- residual activity [11, 45]: 70.7%
- residual activity [12, 45]: 75.3%
- residual activity [13, 45]: 100%
- residual activity [14, 45]: 97.3%
- residual activity [15, 45]: 86.1%
- residual activity [16, 45]: 86%
- inhibition [17]: -7.91%
- residual activity [18, 45]: 94.7%
- inhibition [19]: -6.93%
- residual activity [20, 45]: 95.6%
- residual activity [21, 45]: 90.9%
- residual activity [22, 45]: 82.4%
- residual activity [23, 45]: 59.1%
- residual activity [24, 45]: 64.3%
- residual activity [25, 45]: 75.9%
- residual activity [26, 45]: 100%
- residual activity [27, 45]: 86.3%
- inhibition [28]: 16.1%
- residual activity [29, 45]: 64.6%
- residual activity [30, 45]: 80.7%
- residual activity [31, 45]: 100%
- residual activity [32, 45]: 83%
- residual activity [33, 45]: 100%
- residual activity [34, 45]: 100%
- residual activity [35, 45]: 100%
- residual activity [36, 45]: 84.7%
- residual activity [37, 45]: 83.6%
- residual activity [38, 45]: 74.5%
- residual activity [39, 45]: 90.7%
- residual activity [40, 45]: 100%
- residual activity [41, 45]: 99.6%
- residual activity [42, 45]: 76.2%
- residual activity [43, 45]: 45.2%
- residual activity [44, 45]: 98.8%

SMILES: Cc1cc(NC(=O)c2cccc(S(F)(F)(F)(F)F)c2)cc(-n2ccn3nc(-c4cccnc4)cc23)c1 [BAY-309]
- residual activity [1, 46]: 85.3%
- residual activity [2, 46]: 99.2%
- residual activity [3, 46]: 100%
- residual activity [4, 46]: 100%
- residual activity [5, 46]: 100%
- residual activity [6, 46]: 59.9%
- residual activity [7, 46]: 100%
- residual activity [8, 46]: 100%
- residual activity [9, 46]: 60.8%
- residual activity [10, 46]: 96.6%
- residual activity [11, 46]: 100%
- residual activity [12, 46]: 100%
- residual activity [13, 46]: 100%
- residual activity [14, 46]: 100%
- residual activity [15, 46]: 57.5%
- residual activity [16, 46]: 72%
- inhibition [17]: -5.04%
- residual activity [18, 46]: 65.9%
- inhibition [19]: -4.43%
- residual activity [20, 46]: 100%
- residual activity [21, 46]: 100%
- residual activity [22, 46]: 79.3%
- residual activity [23, 46]: 100%
- residual activity [24, 46]: 53.9%
- residual activity [25, 46]: 84.9%
- residual activity [26, 46]: 100%
- residual activity [27, 46]: 100%
- inhibition [28]: 8.74%
- residual activity [29, 46]: 100%
- residual activity [30, 46]: 88.8%
- residual activity [31, 46]: 37.6%
- residual activity [32, 46]: 77.6%
- residual activity [33, 46]: 91.2%
- residual activity [34, 46]: 100%
- residual activity [35, 46]: 100%
- residual activity [36, 46]: 100%
- residual activity [37, 46]: 75.2%
- residual activity [38, 46]: 66.7%
- residual activity [39, 46]: 84.1%
- residual activity [40, 46]: 100%
- residual activity [41, 46]: 100%
- residual activity [42, 46]: 68.3%
- residual activity [43, 46]: 100%
- residual activity [44, 46]: 100%
